Source: patent US6680054B1 (priority 1996, dated 2004)
Read-outs that look alike come from different tables or passages of the source.

Experiments:
influenza A virus = type: cell-based
[1] = target: whole virus influenza neuraminidase, A/NWS/Tokyo/3/67/H1N2 (Influenza A virus, UniProt P06820); type: biochemical; conditions: read-out: inhibition constants (IC50), NWS/Tokyo
influenza strain Tokyo A = type: cell-based
[2] = test system: influenza strain X-31 (H3N2); type: cell-based

Chain of whole virus influenza neuraminidase, A/NWS/Tokyo/3/67/H1N2 (P06820 whole entry, looked up): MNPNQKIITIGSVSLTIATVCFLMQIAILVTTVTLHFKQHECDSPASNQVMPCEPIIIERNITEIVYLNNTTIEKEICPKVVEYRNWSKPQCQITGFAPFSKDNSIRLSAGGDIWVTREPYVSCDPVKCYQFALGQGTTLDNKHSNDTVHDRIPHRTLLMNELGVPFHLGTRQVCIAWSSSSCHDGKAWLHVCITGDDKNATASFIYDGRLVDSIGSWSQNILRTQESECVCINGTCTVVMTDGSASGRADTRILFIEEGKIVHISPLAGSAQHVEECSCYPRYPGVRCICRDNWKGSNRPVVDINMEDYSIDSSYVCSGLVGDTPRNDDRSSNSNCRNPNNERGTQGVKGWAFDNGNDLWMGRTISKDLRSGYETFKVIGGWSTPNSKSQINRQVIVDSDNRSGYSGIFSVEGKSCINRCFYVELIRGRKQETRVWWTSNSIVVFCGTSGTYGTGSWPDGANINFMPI

Molecule	ID50, minimum compound concentration that inhibits cytopathic effect by 50% (influenza A virus) [µg/mL]	MTC, minimum cytotoxic drug concentration (MDCK cells)	MTC, minimum cytotoxic drug concentration (MDCK cells; dog)	also measured
7-{6′-{6″-[6″′-(6″″-(6′″″-aminocaproyl)-aminocaproyl)-aminocaproyl]-aminocaproyl}-aminohexyl-carbamoyl-oxy-4-guanidino-Neu5Ac2en [Compound 2c]	3.0	>100		
CC(=O)N[C@H]1[C@H]([C@H](O)[C@H](O)CO)OC(C(=O)O)=C[C@@H]1O [DANA, 2-deoxy-2,3-didehydro-N-acetylneuraminic acid]				IC50 [1]: 6 µM
CC(=O)NC1C(NC(=N)N)C=C(C(=O)O)OC1[C@H](O)[C@H](O)CO (stereo partly shown) [GG167, 4-guanidino-Neu5Ac2en]	<0.32		>100	
NC(=O)c1ncn([C@@H]2O[C@H](CO)[C@@H](O)[C@H]2O)n1 [Ribavirin]	1.0 to 2.6		>32	
Fetuin				Lowest Concentration (μM of GG167 units) that Inhibited Agglutination, TOKYO (influenza strain Tokyo A): 5.86 µM; Lowest Concentration (μM of GG167 units) that Inhibited Agglutination, X-31 [2]: <0.48 µM
Polyacrylamide		>100		
